The test system of series [1] is pERK in AGS cells (KRAS G12D). Description: Inhibitory effect on intracellular pERK by In-Cell Western assay, AGS. It is filed as cell-based. As to conditions: pERK inhibition, compound incubation 3 h, read-out: AGS, IC50 (nM) KRAS p.G12D. The protocol: (§1) 1. Determination of Inhibitory Effect on Intracellular pERK by In-Cell Western Assay
(§2) (1) On the first day, the following cells were revived and cultured with the corresponding culture medium and incubated at 37 °C, 5% CO2 until confluence.
(§3) (2) On the third day, the culture medium was removed, the cells were rinsed once with DPBS, 2 mL of TrypLE™ trypsin was added for digestion, and the cells were placed at room temperature until the cells detached. (3) 5 mL fresh culture medium was added to resuspend cells to terminate the digestion, and the cells were gently pipetted and centrifuged at 1000 rpm for 5 minutes at room temperature. (4) The supernatant was removed, and 5 mL fresh culture medium was added to resuspend the cells and count cells. (5) The cells were plated in a 384-well plate with appropriate cell concentration by adjusting with complete culture medium and incubated at 37 °C, 5% CO2 for overnight. (6) 200 nL of the prepared serial dilution compound (DMSO final concentration was 0.5%) was added and incubated at 37 °C, CO2 for 3 h (HPAC cell lines for 1 h). (7) The cells were fixed. (8) The cells were washed twice with PBS. (9) The blocking solution was added and the cells were incubated at room temperature for 1 h. (10) The blocking solution was removed, and the primary antibody (phospho-ERK Rabbit mAb + GAPDH (D4C6R) Mouse mAb) was added and the cells were incubated at 4 °C for overnight. (11) The cells were washed twice with PBST (PBS + 0.05% Tween 20) for 2 minutes each time. (12) PBST was removed and secondary antibody (IRDye 800CW Goat anti-Rabbit IgG (H+L) + IRDye 680RD Goat anti Mouse IgG (H+L)) was added and incubated away from light at room temperature. (14) Secondary antibody was discarded and the cell was washed twice with PBST, 2 minutes each time. (15) 384-well plate was inverted and centrifuged at 1000 rpm at room temperature for 1 minute, and the 384-well plate was scanned with Odyssey CLx.

The test system of series [2] is pERK in HCT 116 cells (KRAS p.G13D). Description: Inhibitory effect on intracellular pERK by In-Cell Western assay, HCT 116. As to conditions: Homo sapiens, pERK inhibition, compound incubation 3 h. The class given is cell-based. Here is the method:
as §1, §2
as §3, with “CLx. (16) Data analysis: • a) Assay stability check was peformed by using DMSO and reference control data: [formula] [formula] • b) nonlinear fitting of Compound IC50: Y = Bottom + (Top−Bottom)/(1+10^(∧)((LogIC50−X)×HillSlope)). [formula]” for “CLx.”

Series [3] relates to pERK in H358 cells (KRAS p.G12C). In words: Inhibitory effect on intracellular pERK by In-Cell Western assay, H358. The class given is cell-based. As to conditions: Homo sapiens, NCI-H358, pERK inhibition, compound incubation 3 h. The protocol:
as §1, §2
as §3, with “CLx. (16) Data analysis: • a) Assay stability check was peformed by using DMSO and reference control data: [formula] [formula] • b) nonlinear fitting of Compound IC50: Y = Bottom + (Top−Bottom)/(1+10^(∧)((LogIC50−X)×HillSlope)). [formula]” for “CLx.”

Series [4] concerns pERK in A549 cells (KRAS p.G12S). Description: Inhibitory effect on intracellular pERK by In-Cell Western assay, A549. As to conditions: Homo sapiens, pERK inhibition, compound incubation 3 h. It is filed as cell-based. The protocol: as §1, §2
as §3, with “CLx. (16) Data analysis: • a) Assay stability check was peformed by using DMSO and reference control data: [formula] [formula] • b) nonlinear fitting of Compound IC50: Y = Bottom + (Top−Bottom)/(1+10^(∧)((LogIC50−X)×HillSlope)). [formula]” for “CLx.”

Series [5] concerns pERK in MKN1 cells (KRAS WTdep). In words: Inhibitory effect on intracellular pERK by In-Cell Western assay, MKN1. The class given is cell-based. As to conditions: Homo sapiens, MKN-1, pERK inhibition, compound incubation 3 h. Here is the method: as §1, §2
as §3, with “CLx. (16) Data analysis: • a) Assay stability check was peformed by using DMSO and reference control data: [formula] [formula] • b) nonlinear fitting of Compound IC50: Y = Bottom + (Top−Bottom)/(1+10^(∧)((LogIC50−X)×HillSlope)). [formula]” for “CLx.”

Series [6] is described as follows: Pharmacokinetic evaluation by intravenous injection or oral gavage in mice.
Description: Pharmacokinetic evaluation of the compounds of the present invention by intravenous injection or oral gavage in mice
The inventors conducted a pharmacokinetic evaluation of the compounds of this invention in mice.
The compounds of the present invention were administered to test animals in the form of a solution of 5% DMSO + 30% PEG400 + 65% saline, 10% DMSO + 10% Kolliphor HS15 + 80% Saline, 10% DMSO + 89% (25% SBE-B-CD) + (2% HCl), 20% PEG400 + 80% sterile water for injection, or 10% DMA + 10% HS15 + 30% PEG400 + 50% sterile water for injection. The animals were fasted for 12 hours before administration and had free access to water. For the intravenous administration group, the dose was 2 mg/kg/day, qd. Venous blood samples (approximately 0.15 mL) were collected at the following time points after administration: 0.083, 0.25, 0.5, 1.0, 2.0, 5.0, 7.0 and 24 hours. EDTA-K2 was pre-added to the blood collection tube as an anticoagulant. Blood samples were centrifuged at 12,000 rpm for 2 minutes, and plasma was collected and stored at -20°C or -70°C. For the intravenous administration group, the dose was 5 mg/kg/day, qd. Venous blood samples (approximately 0.15 mL) were collected at the following time points after administration: 0.25, 0.5, 1.0, 2.0, 5.0, 7.0 and 24 hours. EDTA-K2 was pre-added to the blood collection tube as an anticoagulant. Blood samples were centrifuged at 12,000 rpm for 2 minutes, and plasma was collected and stored at -20°C or -70°C.
The collected plasma samples were processed (frozen plasma was thawed at room temperature and vortexed for 15 seconds. 10-20 µL of plasma was added to 120-150 µL of acetonitrile solution containing the internal standard and vortexed for 5 minutes. The sample was centrifuged at 4,000 rpm for 5 minutes. 100 µL of the supernatant was added to 120-150 µL of methanol/water (v/v = 1/1) and mixed). The concentrations of the compounds in the plasma were analyzed by LC-MS/MS.

Molecules are shown by their SMILES. Read-outs that look alike come from different tables or passages of the source.

`CCC#Cc1nc(-c2cc(O)cc3ccc(F)c(CC)c23)c(F)c2nc(OC[C@@]34CCCN3C[C@H](F)C4)nc(N3CCCOCC3)c12` [Compound 4]: in series [1] (Homo sapiens, AGS, 3 h), the IC50 stood at 7.5 nM.
Still for that read-out and setting: next, `C#Cc1c(F)ccc2cc(O)cc(-c3nc(C#CCOC4CCC4)c4c(N5CCCOCC5)nc(OC[C@@]56CCCN5C[C@H](F)C6)nc4c3F)c12` [Compound 5]: 8.6 nM.
In the case of `C#Cc1c(F)ccc2cc(O)cc(-c3nc(C#C)c4c(N5CCCOCC5)nc(OC[C@@]56CCCN5C[C@H](F)C6)nc4c3F)c12` [Compound 7], the IC50 in series [2] stood at 11.6 nM; in series [3], 1.3 nM; in series [4], 5.7 nM; in series [1] (Homo sapiens, AGS, 3 h), 0.6 nM; in series [5], 3.3 nM.
With `C#Cc1nc(-c2cc(O)cc3ccc(F)c(CC)c23)c(F)c2nc(OC[C@@]34CCCN3C[C@H](F)C4)nc(N3CCCOCC3)c12` [Compound 8], in series [1] (Homo sapiens, AGS, 3 h), the IC50 stood at 7.1 nM.
With `C#Cc1nc(-c2cc(O)cc3cccc(Cl)c23)c(F)c2nc(OC[C@@]34CCCN3C[C@H](F)C4)nc(N3CCCOCC3)c12` [Compound 9], the IC50 in series [1] (Homo sapiens, AGS, 3 h) was determined as 17.2 nM.
In the case of `C#Cc1c(F)ccc2cc(O)cc(-c3nc(C#C)c4c(N5CCCOCC5)nc(OCC56CC(=C)CN5CC(=C)C6)nc4c3F)c12` [Compound 10], the concentration for half-maximal inhibition (IC50) in series [2] was found to be 6.2 nM; in series [3] it was 0.7 nM; in series [4], 1.4 nM; in series [1] (Homo sapiens, AGS, 3 h), 0.8 nM; in series [5], 1.6 nM.
Turning to `C#Cc1c(F)ccc2cc(O)cc(-c3nc(C#CC)c4c(N5CCCOCC5)nc(OCC56CCCN5CCC6)nc4c3F)c12` [Compound 11], the IC50 turned out to be 28.6 nM in series [2]; 2 nM in series [3]; 20.2 nM in series [4]; 2.6 nM in series [1] (Homo sapiens, AGS, 3 h); 7.4 nM in series [5].
For the compound `C#Cc1c(F)ccc2cc(O)cc(-c3nc(C#CC)c4c(N5CCCOCC5)nc(OC[C@@H]5CCCN5C)nc4c3F)c12` [Compound 12], the IC50 in series [1] (Homo sapiens, AGS, 3 h) turned out to be 5.8 nM.
Regarding `C#Cc1c(F)ccc2cc(O)cc(-c3nc(C#CC)c4c(N5CCCOCC5)nc(OCC56CC(=C)CN5CC(=C)C6)nc4c3F)c12` [Compound 14], the IC50 in series [1] (Homo sapiens, AGS, 3 h) came out at 1.2 nM.
Still for that read-out and setting: next, `C#Cc1c(F)ccc2cc(O)cc(-c3nc(C#CC)c4c(N5CCCOCC5)nc(OCC56CCCN5CC(F)(F)C6)nc4c3F)c12` (stereo not drawn) [Compound 15]: 15 nM.
Still for that read-out and setting: next, `C#Cc1c(F)ccc2cc(O)cc(-c3nc(C#CC)c4c(N5CCCOCC5)nc(OC[C@@H]5C[C@@H](F)CN5C)nc4c3F)c12` [Compound 16]: 8.1 nM.
As to `C#Cc1c(F)ccc2cc(O)cc(-c3nc(C#CC)c4c(N5CCCOCC5)nc(OCC56CCCN5CC(F)C6)nc4c3F)c12` (stereo not drawn) [Compound 17], the IC50 in series [1] was determined as 0.8 nM.
Take `C#Cc1c(F)ccc2cc(O)cc(-c3nc(C#CC)c4c(N5CCCOCC5)nc(OCC5(CN6CCOCC6)CC5)nc4c3F)c12` [Compound 19]: the IC50 in series [1] (Homo sapiens, AGS, 3 h) is 6.4 nM.
Still for that read-out and setting: next, `C#Cc1c(F)ccc2cc(N)cc(-c3nc(C#CC)c4c(N5CCCOCC5)nc(OC[C@@]56CCCN5C[C@H](F)C6)nc4c3F)c12` [Compound 22]: 2.8 nM; `CC#Cc1nc(-c2cc(O)cc3cccc(Cl)c23)c(F)c2nc(OC[C@@]34CCCN3C[C@H](F)C4)nc(N3CCCOCC3)c12` [Compound 23]: 6.1 nM.
Take `CC#Cc1nc(-c2cc(O)cc3cccc(F)c23)c(F)c2nc(OC[C@@]34CCCN3C[C@H](F)C4)nc(N3CCCOCC3)c12` [Compound 24]: in series [1] (Homo sapiens, AGS), the IC50 came to 5.4 nM.
In series [2], `C#Cc1c(F)ccc2cc(O)cc(-c3nc(C#CC)c4c(N5CCCCC(F)C5)nc(OC[C@@]56CCCN5C[C@H](F)C6)nc4c3F)c12` (stereo partly drawn) [Compound 25] yielded an IC50 of 7.9 nM. For the same compound, the IC50 in series [3] was determined as 0.8 nM. This compound displayed an IC50 in series [4] of 2.3 nM. Further, in series [1] (Homo sapiens, AGS), the IC50 worked out at 0.8 nM. For the same compound, the “F_AUCT NF” value in series [6] (mice, 5 mg/kg/day ig administration versus 2 mg/kg/day iv) is recorded as 23%. In series [6] (mouse, plasma, iv, 2 mg/kg/day), this compound displayed an AUC(0-inf) of 10800 ng·h/mL, an AUC(0-t) of 10600 ng·h/mL, a Cmax of 9950 ng/mL and an MRT last of 1.3 h. Further, in series [6] (mouse, plasma, iv, 2 mg/kg/day), the Tmax is 0.083 h, the clearance was determined as 3.2 mL/min/kg and the half-life was 1.2 h. Moreover, in series [6] (mouse, plasma, po, 5 mg/kg/day), the total exposure AUC(0-inf) amounted to 6140 ng·h/mL, the area under the curve AUC(0-t) was found to be 5960 ng·h/mL, the Cmax stood at 2660 ng/mL and the MRT last was 1.7 h. In series [6] (mouse, plasma, po, 5 mg/kg/day), the time of peak concentration (Tmax) was 0.42 h and the half-life is 1.3 h. Moreover, the “pharmacokinetic properties in mice” value in series [6] (result in words) was “good pharmacokinetic properties”. Also, the IC50 in series [5] worked out at 3 nM.
Turning to `C#Cc1c(F)ccc2cc(O)cc(-c3nc(C#CC)c4c(N5CCCCC(F)(F)C5)nc(OC[C@@]56CCCN5C[C@H](F)C6)nc4c3F)c12` [Compound 27], the IC50 in series [2] was 19.5 nM; in series [3], 2 nM; in series [4], 5.1 nM; in series [1] (Homo sapiens, AGS, 3 h), 5.2 nM; in series [5] it was 4.5 nM.
The matching figures for `C#Cc1c(F)ccc2cc(O)cc(-c3nc(C#CC)c4c(N5CCCCCC5)nc(OC[C@@]56CCCN5C[C@H](F)C6)nc4c3F)c12` [Compound 29]: 15.2 nM, 2.2 nM, 6.2 nM, 1.4 nM and 3.6 nM.
Take `C#Cc1c(F)ccc2cc(O)cc(-c3nc(C#CCC)c4c(N5CCCCCC5)nc(OC[C@@]56CCCN5C[C@H](F)C6)nc4c3F)c12` [Compound 30]: the IC50 in series [1] (Homo sapiens, AGS, 3 h) is 6.8 nM.
On the same count and under the same terms, the value for `CCC#Cc1nc(-c2cc(O)cc3ccc(F)c(CC)c23)c(F)c2nc(OC[C@@]34CCCN3C[C@H](F)C4)nc(N3CCCCC(=O)C3)c12` [Compound 33] was 4.1 nM; that for `CC#Cc1nc(-c2cc(O)cc3ccc(F)c(CC)c23)c(F)c2nc(OCC34CCCN3CCC4)nc(N3CCCCC(=O)C3)c12` [Compound 35] was 4.4 nM.
`C#Cc1c(F)ccc2cc(O)cc(-c3nc(C#CC)c4c(N5CCOCC(F)(F)C5)nc(OC[C@@]56CCCN5C[C@H](F)C6)nc4c3F)c12` [Compound 38]: the IC50 in series [2] amounted to 5.4 nM; in series [3], 0.4 nM; in series [4], 1.2 nM; in series [1] (Homo sapiens, AGS, 3 h) it was 1.6 nM; in series [5] it was 1.41 nM.
